Measurements as given in patent US20080194616A1, “PYRIDOPYRIMIDINONE COMPOUNDS USEFUL IN TREATING SODIUM CHANNEL-MEDIATED DISEASES OR CONDITIONS” (Xenon Pharmaceuticals Inc., priority 2007, published 2008).
Where a name gives a salt, the structure may show the parent alone.

Assays:
[1] = test system: sodium channel; assay: Guanidine Influx Assay (In Vitro Assay); assay type: cell-based, human or rat; details: known cell line that expresses a sodium channel; read-out: IC50 Activity Level
From the text: This example describes an in vitro assay for testing and profiling test agents against human or rat sodium channels stably expressed in cells of either an endogenous or recombinant origin. The assay is also useful for determining the IC-50 of a sodium channel blocking compound. The assay is based on the guanidine flux assay described by Reddy, N. L., et al., J. Med. Chem. (1998), 41(17):3298-302.
The guanidine influx assay is a radiotracer flux assay used to determine ion flux activity of sodium channels in a high-throughput microplate-based format. The assay uses ^14C-guanidine hydrochloride in combination with various known sodium channel modulators, to assay the potency of test agents. Potency is determined by an IC-50 calculation. Selectivity is determined by comparing potency of the compound for the channel of interest to its potency against other sodium channels (also called ‘selectivity profiling’).
Each of the test agents is assayed against cells that express the channels of interest. Voltage gated sodium channels are either TTX sensitive or insensitive. This property is useful when evaluating the activities of a channel of interest when it resides in a mixed population with other sodium channels. The following Table 1 summarizes cell lines useful in screening for a certain channel activity in the presence or absence of TTX.
Cells expressing the channel of interest are grown according to the supplier or in the case of a recombinant cell in the presence of selective growth media such as G418 (Gibco/Invitrogen). The cells are disassociated from the culture dishes with an enzymatic solution (1×) Trypsin/EDTA (Gibco/Invitrogen) and analyzed for density and viability using haemocytometer (Neubauer). Disassociated cells are washed and resuspended in their culture media then plated into Scintiplates (Beckman Coulter Inc.) (approximately 100,000 cells/well) and incubated at 37° C./5% CO2. for 20-24 hours. After an extensive wash with Low sodium HEPES-buffered saline solution (LNHBSS) (150 mM Choline Chloride, […] (Sigma), 1 mM Calcium Chloride, 5 mM Potassium Chloride, 1 mM Magnesium Chloride, 10 mM Glucose) agents diluted with LNHBSS are added to each well. (Varying concentrations of test agent may be used). The activation/radiolabel mixture contains aconitine (Sigma), and ^14C-guanidine hydrochloride (ARC).
After loading the cells with test agent and activation/radiolabel mixture, the Scintiplates are incubated at ambient temperature. Following the incubation, the Scintplates are extensively washed with LNHBSS supplemented with guanidine (Sigma). The Scintiplates are dried and then counted using a Wallac MicroBeta TriLux (Perkin-Elmer Life Sciences). The ability of the test agent to block sodium channel activity is determined by comparing the amount of ^14C-guanidine present inside the cells expressing the different sodium channels.
IC-50 value of a test agent for a specific sodium channel may be determined using the above general method. IC-50 may be determined using a 3,8,10,12 or 16 point curve in duplicate or triplicate with a starting concentration of 1, 5 or 10 μM diluted serially with a final concentration reaching the sub-nanomolar, nanomolar and low micromolar ranges. Typically the mid-point concentration of test agent is set at 1 μM, and sequential concentrations of half dilutions greater or smaller are applied (e.g. 0.5 μM; […] and 0.25 μM; 10 μM and 0.125 μM; 20 μM etc.). The IC-50 curve is calculated using the 4 Parameter Logistic Model or Sigmoidal Dose-Response Model formula (fit=(A+((B−A)/(1+((C/x)̂D)))).

[2] = test system: CHO-K1; assay type: cell-based, Chinese Hamster
[3] = test system: PC12 (rat pheochromocytoma); assay type: cell-based
[4] = test system: SK-N-BE2C; assay type: cell-based, human
[5] = test system: L6 (rat myoblast cell); assay type: cell-based

SMILES | melting point | IC50 [1] | further results
CC(C)c1nc2ccccn2c(=O)c1-c1ccc(N[C@@H]2CCN(C(=O)OC(C)(C)C)C2)cc1 (stereo in doubt) [Example 3.6, tert-butyl 3-({4-[2-(1-methylethyl)-4-oxo-4H-pyrido[1,2-a]pyrimidin-3-yl]phenyl}amino)pyrrolidine-1-carboxylate] | 232 to 236 °C | ≥ 10 µM | –
CC(C)c1nc2ccccn2c(=O)c1-c1ccc(Cl)cc1 [Example 1.5, 3-(4-chlorophenyl)-2-(1-methylethyl)-4H-pyrido[1,2-a]pyrimidin-4-one] | 98 to 100 °C | ≥ 10 µM | –
CCCCc1nc2ccccn2c(=O)c1-c1ccc(N)cc1 [Example 1.14, 2-butyl-3-(4-aminophenyl)-4H-pyrido[1,2-a]pyrimidin-4-one] | 95 to 97 °C | 0.1 to 1 µM | –
CCCCc1nc2ccccn2c(=O)c1-c1ccc(NC(=O)OC(C)(C)C)cc1 [Example 1.15, tert-butyl 4-(2-butyl-4-oxo-4H-pyrido[1,2-a]pyrimidin-3-yl)phenylcarbamate] | 132 to 135 °C | ≥ 10 µM | –
COc1nc2ccccn2c(=O)c1-c1ccc(Cl)cc1 [Example 1.24, 3-(4-chlorophenyl)-2-methoxy-4H-pyrido[1,2-a]pyrimidin-4-one] | 149 to 151 °C | ≥ 10 µM | –
CCCCc1nc2ccccn2c(=O)c1-c1ccc(N[C@@H]2CCN(C(=O)OC(C)(C)C)C2)cc1C [Example 3.10, (R)-tert-butyl 3-{[4-(2-butyl-4-oxo-4H-pyrido[1,2-a]pyrimidin-3-yl)-3-methylphenyl]amino}pyrrolidine-1-carboxylate] | 162 to 168 °C | ≥ 10 µM | –
COc1nc2ccccn2c(=O)c1-c1ccc(NC2CCN(C(=O)OC(C)(C)C)C2)cc1 (stereo not drawn) [Example 3.19, tert-butyl 3-{[4-(2-methoxy-4-oxo-4H-pyrido[1,2-a]pyrimidin-3-yl)phenyl]amino}pyrrolidine-1-carboxylate] | 102 to 104 °C | ≥ 10 µM | –
CCCNc1nc2ccccn2c(=O)c1-c1ccc(NC2CCN(C(=O)OC(C)(C)C)C2)cc1 (stereo not drawn) [Example 3.21, tert-butyl 3-({4-[4-oxo-2-(propylamino)-4H-pyrido[1,2-a]pyrimidin-3-yl]phenyl}amino)pyrrolidine-1-carboxylate] | 187 to 190 °C | ≥ 10 µM | –
CC(C)Nc1nc2ccccn2c(=O)c1-c1ccc(NC2CCN(C(=O)OC(C)(C)C)C2)cc1 (stereo not drawn) [Example 3.22, tert-butyl 3-[(4-{2-[(1-methylethyl)amino]-4-oxo-4H-pyrido[1,2-a]pyrimidin-3-yl}phenyl)amino]pyrrolidine-1-carboxylate] | 210 to 212 °C | ≥ 10 µM | –
CCCCc1nc2ccccn2c(=O)c1-c1ccc(NC(=O)[C@@H]2CCCN2C(=O)OC(C)(C)C)cc1 [Example 5, (S)-tert-butyl 2-{[4-(2-butyl-4-oxo-4H-pyrido[1,2-a]pyrimidin-3-yl)phenyl]carbamoyl}-pyrrolidine-1-carboxylate] | 179 to 187 °C | ≥ 10 µM | –
CCCCc1nc2ccccn2c(=O)c1-c1ccc(N[C@@H]2CCNC2)cc1.Cl [Example 8, (R)-2-butyl-3-(4-(pyrrolidin-3-ylamino)phenyl)-4H-pyrido[1,2-a]pyrimidin-4-one hydrochloride] | 171 to 174 °C | 1 to 10 µM | –
CCCCc1nc2ccccn2c(=O)c1-c1ccc(O)cc1 [Example 11, 2-butyl-3-(4-hydroxyphenyl)-4H-pyrido[1,2-a]pyrimidin-4-one] | 160 °C (dec.) | ≥ 10 µM | –
CCCCc1nc2ccccn2c(=O)c1-c1ccc(OS(=O)(=O)C(F)(F)F)cc1 [Example 12, 4-(2-butyl-4-oxo-4H-pyrido[1,2-a]pyrimidin-3-yl)phenyl trifluoromethanesulfonate] | – | ≥ 10 µM | –
CCCCc1nc2ccc(Cl)cn2c(=O)c1-c1ccc(O)cc1 [Example 13, 2-butyl-7-chloro-3-(4-hydroxyphenyl)-4H-pyrido[1,2-a]pyrimidin-4-one] | – | ≥ 10 µM | –
CCCCc1nc2ccccn2c(=O)c1-c1ccc(O[C@@H]2CCNC2)cc1 [Example 15, (R)-2-butyl-3-{4-[pyrrolidin-3-yloxy]phenyl}-4H-pyrido[1,2-a]pyrimidin-4-one hydrochloride] | – | ≥ 10 µM | –
CCCCc1nc2ccccn2c(=O)c1-c1ccc(NC(=O)[C@@H]2CCCN2)cc1.Cl [Example 18, (S)—N-[4-(2-butyl-4-oxo-4H-pyrido[1,2-a]pyrimidin-3-yl)phenyl]prolinamide hydrochloride] | 179 to 187 °C | ≥ 10 µM | –
NC1=N[C@H](O)[C@H]2[C@H]3O[C@]4(O)O[C@@H]([C@@H](O)[C@@]2(N1)[C@@H]4O)[C@]3(O)CO [TTX, tetrodotoxin] | – | – | block of [14C] Guanidine influx [2]: Guanidine influx was completely; block of [14C] Guanidine influx [3]: Guanidine influx was completely; block of [14C] Guanidine influx [4]: TTX partially blocked influx; block of [14C] Guanidine influx [5]: partially blocked by TTX (Nav1.5
